# Test results: patent US20230303544A1, “LMO2 PROTEIN INHIBITORS” (UNIVERSITY OF OXFORD, priority 2020, published 2023)
# pIC50: −log10 of the molar value. Several values for one entry are separate records, joined by “and”; a condition that tells them apart may be missing. Equal values may be shown once.
# Assays:
# [1] = target: T1, LMO2-iDAb LMO2dm3 interaction (Homo sapiens, UniProt P25791); assay: LMO2-iDAb LMO2dm3 BRET assay; assay type: cell-based; details: 22 h; for pIC50: BRET dose response, HEK293T cells, 0.01-50 μM; for inhibition of LMO2-iDAb LMO2dm3 interaction (in words): BRET competition, Abd concentration 1 (or 5), 10, 20 μM
# T1 construct: LMO2 cDNA was cloned into the pEF-RLuc8-MCS and pEF-MCS-RLuc8 plasmids; expressed in transfected cells; host or cells: HEK293T
# T1 sequence (P25791 1-158): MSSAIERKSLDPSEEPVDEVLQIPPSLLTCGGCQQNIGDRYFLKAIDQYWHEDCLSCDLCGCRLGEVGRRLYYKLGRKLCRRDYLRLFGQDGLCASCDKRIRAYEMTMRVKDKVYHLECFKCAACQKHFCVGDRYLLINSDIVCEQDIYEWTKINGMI
# Protocol: For all BRET experiments (titration curves and competition assays) 650,000 HEK293T were seeded in each well of a 6 well plates. After 24 hours at 37° C., cells were transfected with a total of 1.6 μg of DNA mix, containing the donor+acceptor±competitor plasmids, using Lipofectamine 2000 transfection reagent (Thermo-Fisher). In dose response competition experiments, competitors were transfected with the following amount of DNA: 0.1; 0.5 and 1 μg. In single dose competition experiments, competitors were transfected with […] of DNA. Cells were detached 24 hours later, washed with PBS and seeded in a white 96-well plate (clear bottom, PerkinElmer, Cat #6005181) in OptiMEM no phenol red medium complemented with 4% FBS and cells were incubated for an additional 20-24 hours at 37° C. before the BRET assay reading. A detailed BRET protocol is provided by Bery and Rabbitts, (2019).
# Compounds were prepared in 100% DMSO at 10 mM. For BRET competition assays, cells were treated with the indicated compounds at concentration of 1 (or 5), 10 and 20 μM for 22 h. For BRET-based dose response experiments, cells were treated with compounds at concentration of 0.01, 0.1, 1, 4, 10, 25 and 50 μM for 22 h. The compounds were diluted in the BRET medium: OptiMEM no phenol red (Life Technologies) supplemented with 4% FBS and with a final concentration of 0.2% DMSO.
# BRET2 signal was determined immediately after injection of coelenterazine 400a substrate (10 μM final) to cells (Cayman Chemicals), using a CLARIOstar instrument (BMG Labtech) with a luminescence module. Total GFP^2 fluorescence was detected with excitation and emission peaks set at 405 nm and 515 nm respectively. Total RLuc8 luminescence was measured with the Luminescence 400-700 nm-wavelength filter.
# The BRET signal or BRET ratio corresponds to the light emitted by the GFP^2 acceptor constructs (515 nm±30) upon addition of coelenterazine 400a divided by the light emitted by the RLuc8 donor constructs (410 nm±80). The background signal is subtracted from that BRET ratio using the donor-only negative control where only the RLuc8 fusion plasmid is transfected into the cells. The normalized BRET ratio is the BRET ratio normalized to a negative control (iDAb control or DMSO control) during a competition assay. Total GFP^2 and RLuc8 signals were used to control the protein expression from each plasmid.
# [2] = target: T2, LMO2-ΔLID (Homo sapiens, UniProt P25791); assay: WaterLOGSY NMR binding to LMO2-ΔLID; details: RT
# T2 construct: UniProt P25791; residues 26-156; hexa-histidine tag (N, cleaved yes); SUMO (N, cleaved yes); made in house; host or cells: E. coli Lemo21(DE3)
# T2 sequence (P25791 with tags, fused parts or gaps): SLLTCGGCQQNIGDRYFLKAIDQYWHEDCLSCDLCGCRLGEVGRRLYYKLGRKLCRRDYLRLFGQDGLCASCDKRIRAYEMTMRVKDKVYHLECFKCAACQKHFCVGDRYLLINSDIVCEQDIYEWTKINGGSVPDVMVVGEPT
# Protocol: (§1) WaterLOGSY NMR method was used to measure LMO2 ligand interaction (Bataille et al., 2020). WaterLOGSY experiments were conducted at a ^1H frequency of 600 MHz using a Bruker Avance spectrometer equipped with a BBI probe. All experiments were conducted at RT. 3 mm diameter NMR tubes with a sample volume of 200 μL were used for all experiments. For LMO2-LID, solutions were buffered using a 10 mM NaPO4, 250 mM NaCl solution. For LMO2-ΔLID, solutions were buffered using a 10 mM NaPO4, 50 mM NaCl solution. The sample preparation for measuring ligand binding with LMO2-LID is exemplified as follows; the compound (10 μL of a 10 mM solution in DMSO-d6) was added to an Eppendorf tube before sequential addition of the appropriate buffer (90 μL), D2O (20 μL), and the protein (80 μL, 25 μM). The resulting solution was vortexed to mix and transferred to a 3 mm NMR tube prior to the NMR analysis. The sample preparation for measuring ligand binding with LMO2-ΔLID is exemplified as follows; the compound (10 μL of a 10 mM solution in DMSO-d6) was added to an Eppendorf tube before sequential addition of the appropriate buffer (162 μL), D2O (20 μL), and the protein (8 μL, 250 μM). The resulting solution was vortexed to mix and transferred to a 3 mm NMR tube prior to the NMR analysis. […]
# [3] = Parallel artificial membrane permeability assay (PAMPA); assay type: in vitro ADME; details: 10 μM donor, pH 5, 6.5 and 7.4, 16 hours, 30° C.
# Protocol: The parallel artificial membrane permeability assay (PAMPA) was used to determine compound permeability by passive diffusion. The assay used an artificial membrane consisting of 2% phosphatidyl choline in dodecane (Sigma Aldrich, Dorset, UK). The donor plate was a MultiScreen-IP Plate with 0.45 μm hydrophobe Immobilon-P Membrane (Millipore, UK) and the acceptor plate was a MultiScreen 96-well Transport Receiver Plate (Millipore, UK). The permeability was measured at 3 different pH levels: pH 5, 6.5 and pH 7.4 in buffer containing 1% Bovine Serum Albumin (Sigma Aldrich, Dorset, UK). A 10 mM DMSO stock solution of test compound was used to prepare the 10 μM PAMPA donor solutions and calibration curves in each of the three buffers.
# 6 μL of the membrane solution was added to each well of the donor plate. Buffer donor solutions (200 μL) were added to the appropriate wells of the PAMPA donor plate. 300 µL per well of blank PBS (pH 7.4) was added to the PAMPA acceptor plate.
# The donor and acceptor plates were then sandwiched together, covered with a lid and incubated at 30° C. in a humid environment for 16 hours. After the incubation period the plates were removed from the incubator and the sandwich was dismantled. […] All sample supernatants were diluted and analysed using a Waters (Milford, MA, US) TQ-S LC-MS/MS system.
# Permeability values (cm/s) were calculated using the following equation: […]
# [4] = target: T3, LMO2-LID (Homo sapiens, UniProt P25791); assay: WaterLOGSY NMR binding to LMO2-LID; details: RT
# T3 construct: made in house; host or cells: E. coli BL21(DE3)-Rosetta2 pLysS
# T3 sequence (P25791 26-156 limits assumed): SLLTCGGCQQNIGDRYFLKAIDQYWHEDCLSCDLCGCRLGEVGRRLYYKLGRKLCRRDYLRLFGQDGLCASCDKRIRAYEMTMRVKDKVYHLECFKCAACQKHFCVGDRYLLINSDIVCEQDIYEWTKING
# T3 sequence (Q86U70 336-375 partner limits assumed): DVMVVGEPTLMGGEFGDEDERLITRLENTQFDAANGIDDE
# Protocol: as §1
# [5] = test system: Caco-2 human colon carcinoma cell line; assay: Caco-2 permeability assay; assay type: in vitro ADME; details: 10 μM, 2 hours, 37° C.
# Protocol: Caco-2 apparent permeability (Papp) was determined in the Caco-2 human colon carcinoma cell line as described (Bavetsias et al., 2016). Cells were maintained (DMEM with 10% fetal bovine serum, penicillin, and streptomycin) in a humidified atmosphere with 5% CO2/95% air for 10 days. Cells were plated out onto a cell culture assembly plate (Millipore, UK), and monolayer confluency was checked using a TEER electrode prior to the assay. Media was washed off and replaced with HBSS buffer (pH7.4) containing compound (10 μM, 1% DMSO) in the appropriate apical and basal donor wells. HBSS buffer alone was placed in acceptor wells. In particular instances a specific P-gp inhibitor, LY335979 (5 μM), was added to the HBSS. The Caco-2 plate was incubated for 2 hours at 37° C. Samples from the apical and basolateral chambers were analysed using a Waters (Milford, MA, US) TQ-S LC-MS/MS system. The cell permeability properties of Abd-L compounds was compared to low (nadolol) and high (antipyrine) permeability compounds and a compound with high export (indinavir).
# Apparent permeability (Papp) was determined as follows: […]
SMILES,pIC50 [1],inhibition of LMO2-iDAb LMO2dm3 interaction (in words) [1],further results
"COc1ccc(CN2CCN(c3nc(C(=O)Nc4ccc(-n5cccc5)cc4)co3)CC2)cc1 [Abd-L19, N-(4-(1H-pyrrol-1-yl)phenyl)-2-(4-(4-methoxybenzyl)piperazin-1-yl)oxazole-4-carboxamide]",4.31,–,–
"CS(=O)(=O)Nc1ccccc1NC(=O)c1cnc(N2CCN(Cc3ccccc3)C2=O)s1 [Abd-L5, 2-(3-benzyl-2-oxoimidazolidin-1-yl)-N-(2-(methylsulfonamido)phenyl)thiazole-5-carboxamide]",–,unable to inhibit,–
"COc1cccc(CN2CCN(c3nc(C(=O)Nc4ccc(-n5cccc5)cc4)cs3)CC2)c1 [Abd-L18, N-(4-(1H-pyrrol-1-yl)phenyl)-2-(4-(3-methoxybenzyl)piperazin-1-yl)thiazole-4-carboxamide]",4.80,–,–
"COc1cccc(CN2CCN(c3nc(C(=O)Nc4ccc(OCc5ccccc5)cc4)co3)CC2)c1 [Abd-L16, N-(4-(benzyloxy)phenyl)-2-(4-(3-methoxybenzyl)piperazin-1-yl)oxazole-4-carboxamide]",5.92,–,–
"COc1cccc(CN2CCN(c3nc(C(=O)Nc4ccc(OCc5ccccc5)cc4)cs3)CC2)c1 [Abd-L17, N-(4-(benzyloxy)phenyl)-2-(4-(3-methoxybenzyl)piperazin-1-yl)thiazole-4-carboxamide]",4.89,–,–
"O=C(NCCc1ccccc1)c1cnc(N2CCN(Cc3ccc(Cl)cc3)C2=O)o1 [Abd-L11, 2-(3-(4-chlorobenzyl)-2-oxoimidazolidin-1-yl)-N-phenethyloxazole-5-carboxamide]",–,unable to inhibit,–
"N#Cc1cccc(CN2CCN(c3nc(C(=O)Nc4ccc(-n5cccc5)cc4)co3)C2=O)c1 [Abd-L10, N-(4-(1H-pyrrol-1-yl)phenyl)-2-(3-(3-cyanobenzyl)-2-oxoimidazolidin-1-yl)oxazole-4-carboxamide]",~6.00 and 6.00,–,–
"COc1ccc(NC(=O)c2cnc(N3CCN(Cc4ccc(Cl)cc4)C3=O)o2)cc1OC [Abd-L8, 2-(3-(4-chlorobenzyl)-2-oxoimidazolidin-1-yl)-N-(3,4-dimethoxyphenyl)oxazole-5-carboxamide]",–,unable to inhibit,–
"COc1cccc(CN2CCN(c3nc(C(=O)Nc4ccc(OCc5ccccc5)cc4)co3)C2=O)c1 [Abd-L9, N-(4-(benzyloxy)phenyl)-2-(3-(3-methoxybenzyl)-2-oxoimidazolidin-1-yl)oxazole-4-carboxamide]",5.82,most potent inhibitor,binding to LMO2-ΔLID by waterLOGSY NMR [2]: bind and showed binding and Direct binding; PAMPA permeability (in words) [3]: best properties; binding to LMO2-LID by waterLOGSY NMR [4]: not; Caco-2 cell permeability (in words) [5]: low transport; Caco-2 efflux (in words) [5]: low efflux ratio
"COc1cccc(CN2CCN(c3nc(C(=O)Nc4ccc(-n5cccc5)cc4)co3)CC2)c1 [Abd-L15, N-(4-(1H-pyrrol-1-yl)phenyl)-2-(4-(3-methoxybenzyl)piperazin-1-yl)oxazole-4-carboxamide]",4.78,–,–
"COc1cccc(CN2CCCN(c3nc(C(=O)Nc4ccc(-n5cccc5)cc4)co3)C2=O)c1 [Abd-L24, N-(4-(1H-pyrrol-1-yl)phenyl)-2-(3-(3-methoxybenzyl)-2-oxotetrahydropyrimidin-1(2H)-yl)oxazole-4-carboxamide]",–,do not affect,–
"O=C(NCc1ccc(Oc2ccccc2)cc1)c1coc(N2CCN(Cc3ccccc3)C2=O)n1 [Abd-L13, 2-(3-benzyl-2-oxoimidazolidin-1-yl)-N-(4-phenoxybenzyl)oxazole-4-carboxamide]",–,–,binding to LMO2-ΔLID by waterLOGSY NMR [2]: bind and showed binding and Direct binding; binding to LMO2-LID by waterLOGSY NMR [4]: not
"COc1cccc(CN2CCN(c3nccc(C(=O)Nc4ccc(-n5cccc5)cc4)n3)CC2)c1 [Abd-L25, N-(4-(1H-pyrrol-1-yl)phenyl)-2-(4-(3-methoxybenzyl)piperazin-1-yl)pyrimidine-4-carboxamide]",–,do not affect,–
